Laboratory results published in PubChem BioAssay AID2060506 (Molecular Pharmacology Branch, DTP, NCI, 2025).

Test system: 598228-144-R-J1-PDC complex spheroid viability
Assay: Anticancer human tumor 598228-144-R-J1-PDC patient-derived serous endometrial adenocarcinoma cell line growth inhibition [GQUAD]
Details: for IC50: curve of first compound; for viability, T/C: stronger effect = lower value
Method in brief: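 Tumor cells were grown as complex spheroids with HUVEC endothelial cells and mesenchymal stem cells as stroma. G-quadruplex stabilizers were combined with targeted agents over half-log dilutions from near the clinical Cmax, or from 10 microM.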

[1] = second compound 0.0316 µM, first compound 0.0316 µM
[2] = second compound 0.0316 µM, first compound 0.1 µM
[3] = second compound 0.0316 µM, first compound 0.316 µM
[4] = second compound 0.0316 µM, first compound 1 µM
[5] = second compound 0.0316 µM, first compound 3.16 µM
[6] = second compound 0.0316 µM, first compound 10 µM
[7] = second compound 0.1 µM, first compound 0.0316 µM
[8] = second compound 0.1 µM, first compound 0.1 µM
[9] = second compound 0.1 µM, first compound 0.316 µM
[10] = second compound 0.1 µM, first compound 1 µM
[11] = second compound 0.1 µM, first compound 3.16 µM
[12] = second compound 0.1 µM, first compound 10 µM
[13] = second compound 0.316 µM, first compound 0.0316 µM
[14] = second compound 0.316 µM, first compound 0.1 µM
[15] = second compound 0.316 µM, first compound 0.316 µM
[16] = second compound 0.316 µM, first compound 1 µM
[17] = second compound 0.316 µM, first compound 3.16 µM
[18] = second compound 0.316 µM, first compound 10 µM
[19] = second compound 1 µM, first compound 0.0316 µM
[20] = second compound 1 µM, first compound 0.1 µM
[21] = second compound 1 µM, first compound 0.316 µM
[22] = second compound 1 µM, first compound 1 µM
[23] = second compound 1 µM, first compound 3.16 µM
[24] = second compound 1 µM, first compound 10 µM
[25] = second compound 3.16 µM, first compound 0.0316 µM
[26] = second compound 3.16 µM, first compound 0.1 µM
[27] = second compound 3.16 µM, first compound 0.316 µM
[28] = second compound 3.16 µM, first compound 1 µM
[29] = second compound 3.16 µM, first compound 3.16 µM
[30] = second compound 3.16 µM, first compound 10 µM
[31] = second compound 10 µM, first compound 0.0316 µM
[32] = second compound 10 µM, first compound 0.1 µM
[33] = second compound 10 µM, first compound 0.316 µM
[34] = second compound 10 µM, first compound 1 µM
[35] = second compound 10 µM, first compound 3.16 µM
[36] = second compound 10 µM, first compound 10 µM
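Note: spheroids exposed to the agents for one week before reading.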
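Throughout, for viability, T/C: percent of vehicle DMSO control viability so 100% = untreated growth.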

For `O=C(c1cc(Cc2n[nH]c(=O)c3ccccc23)ccc1F)N1CCN(C(=O)C2CC2)CC1` + Cc1[nH]c2ccc(F)cc2c1-c1nc2c3cccnc3c3ncccc3c2[nH]1, the IC50 (second compound 0.0316 µM) was greater than 10 µM, the IC50 (second compound 0.1 µM) was greater than 10 µM and the IC50 (second compound 0.316 µM) was greater than 10 µM. It also gave an IC50 (second compound 1 µM) greater than 10 µM, an IC50 (second compound 3.16 µM) of less than 0.0316 µM and an IC50 (second compound 10 µM) greater than 10 µM. The viability, T/C [1] was 110%, the viability, T/C [2] was 95.2% and the viability, T/C [3] was 92.1%. The viability, T/C [4] was 105%, the viability, T/C [5] was 96.4% and the viability, T/C [6] was 97.5%. For the same compound, the viability, T/C [7] was 91.4%, the viability, T/C [8] was 107% and the viability, T/C [9] was 87.8%. The viability, T/C [10] was 88.3%, the viability, T/C [11] was 85.8% and the viability, T/C [12] was 73.8%. It also gave a viability, T/C [13] of 72.9%, a viability, T/C [14] of 90.7% and a viability, T/C [15] of 78%. The viability, T/C [16] was 79%, the viability, T/C [17] was 68.7% and the viability, T/C [18] was 71%. The viability, T/C [19] was 56.1%, the viability, T/C [20] was 66.6% and the viability, T/C [21] was 64.3%. For the same compound, the viability, T/C [22] was 67.1%, the viability, T/C [23] was 60.1% and the viability, T/C [24] was 58.1%. For the same compound, the viability, T/C [25] was 40.8%, the viability, T/C [26] was 44.4% and the viability, T/C [27] was 38.6%. The viability, T/C [28] was 42%, the viability, T/C [29] was 50.8% and the viability, T/C [30] was 45.4%. For the same compound, the viability, T/C [31] was 70.9%, the viability, T/C [32] was 57.8% and the viability, T/C [33] was 65.9%. The viability, T/C [34] was 61.5%, the viability, T/C [35] was 49.6% and the viability, T/C [36] was 61.6%.
Work on `C=CC(=O)N1CCN(c2nc(=O)n(-c3c(C)ccnc3C(C)C)c3nc(-c4c(O)cccc4F)c(F)cc23)C(C)C1` (stereo not drawn) + CN(C)c1ccc(Nc2c3ccc(NC(=O)CCN4CCCC4)cc3nc3cc(NC(=O)CCN4CCCC4)ccc23)cc1 yielded an IC50 (second compound 0.0316 µM) greater than 10 µM, an IC50 (second compound 0.1 µM) greater than 10 µM and an IC50 (second compound 0.316 µM) greater than 10 µM. It also gave an IC50 (second compound 1 µM) greater than 10 µM, an IC50 (second compound 3.16 µM) greater than 10 µM and an IC50 (second compound 10 µM) greater than 10 µM. It also gave a viability, T/C [1] of 94.4%, a viability, T/C [2] of 105% and a viability, T/C [3] of 101%. The viability, T/C [4] was 120%, the viability, T/C [5] was 122% and the viability, T/C [6] was 122%. It also gave a viability, T/C [7] of 93.6%, a viability, T/C [8] of 103% and a viability, T/C [9] of 122%. It also gave a viability, T/C [10] of 122%, a viability, T/C [11] of 119% and a viability, T/C [12] of 109%. For the same compound, the viability, T/C [13] was 97.8%, the viability, T/C [14] was 112% and the viability, T/C [15] was 105%. For the same compound, the viability, T/C [16] was 123%, the viability, T/C [17] was 140% and the viability, T/C [18] was 110%. For the same compound, the viability, T/C [19] was 80.8%, the viability, T/C [20] was 105% and the viability, T/C [21] was 103%. For the same compound, the viability, T/C [22] was 121%, the viability, T/C [23] was 135% and the viability, T/C [24] was 93.8%. It also gave a viability, T/C [25] of 93.5%, a viability, T/C [26] of 111% and a viability, T/C [27] of 114%. It also gave a viability, T/C [28] of 117%, a viability, T/C [29] of 132% and a viability, T/C [30] of 121%. The viability, T/C [31] was 79.6%, the viability, T/C [32] was 85.5% and the viability, T/C [33] was 115%. For the same compound, the viability, T/C [34] was 115%, the viability, T/C [35] was 124% and the viability, T/C [36] was 73%.
`CC1COCCN1c1cc(C2(O)CC3CCC(C2)O3)c2cnn(-c3ccn[nH]3)c2n1` (stereo not drawn) + Cc1cnc(CNC(=O)c2c(=O)c3ccc(N4CCCN(C)CC4)nc3n3c2sc2ccccc23)cn1 gave an IC50 (second compound 0.0316 µM) of 0.0425 µM, an IC50 (second compound 0.1 µM) of less than 0.0316 µM and an IC50 (second compound 0.316 µM) of less than 0.0316 µM. For the same compound, the IC50 (second compound 1 µM) was less than 0.0316 µM, the IC50 (second compound 3.16 µM) was less than 0.0316 µM and the IC50 (second compound 10 µM) was less than 0.0316 µM. The viability, T/C [1] was 59.9%, the viability, T/C [2] was 31.8% and the viability, T/C [3] was 35.8%. The viability, T/C [4] was 36.6%, the viability, T/C [5] was 22.5% and the viability, T/C [6] was 9.67%. It also gave a viability, T/C [7] of 46%, a viability, T/C [8] of 38% and a viability, T/C [9] of 32.8%. For the same compound, the viability, T/C [10] was 34.7%, the viability, T/C [11] was 19.8% and the viability, T/C [12] was 9.84%. It also gave a viability, T/C [13] of 41%, a viability, T/C [14] of 39.7% and a viability, T/C [15] of 33%. For the same compound, the viability, T/C [16] was 36.4%, the viability, T/C [17] was 20.9% and the viability, T/C [18] was 7.21%. It also gave a viability, T/C [19] of 44.6%, a viability, T/C [20] of 41.9% and a viability, T/C [21] of 35.9%. The viability, T/C [22] was 24%, the viability, T/C [23] was 12.7% and the viability, T/C [24] was 4.57%. For the same compound, the viability, T/C [25] was 34.8%, the viability, T/C [26] was 37.9% and the viability, T/C [27] was 25.5%. It also gave a viability, T/C [28] of 7.29%, a viability, T/C [29] of 0.25% and a viability, T/C [30] of 0.64%. The viability, T/C [31] was 14.6%, the viability, T/C [32] was 0.4% and the viability, T/C [33] was 0.37%. For the same compound, the viability, T/C [34] was 0.29%, the viability, T/C [35] was 0.34% and the viability, T/C [36] was 0.24%.
With `C#Cc1c(F)ccc2cc(O)cc(-c3ncc4c(N5CC6CCC(C5)N6)nc(OCC56CCCN5CC(F)C6)nc4c3F)c12` (stereo not drawn) + CN(C)c1ccc(Nc2c3ccc(NC(=O)CCN4CCCC4)cc3nc3cc(NC(=O)CCN4CCCC4)ccc23)cc1 the IC50 (second compound 0.0316 µM) was greater than 10 µM, the IC50 (second compound 0.1 µM) was greater than 10 µM and the IC50 (second compound 0.316 µM) was greater than 10 µM. It also gave an IC50 (second compound 1 µM) greater than 10 µM, an IC50 (second compound 3.16 µM) greater than 10 µM and an IC50 (second compound 10 µM) of 4.61 µM. For the same compound, the viability, T/C [1] was 92.2%, the viability, T/C [2] was 104% and the viability, T/C [3] was 104%. It also gave a viability, T/C [4] of 88.5%, a viability, T/C [5] of 88.9% and a viability, T/C [6] of 101%. For the same compound, the viability, T/C [7] was 103%, the viability, T/C [8] was 118% and the viability, T/C [9] was 104%. It also gave a viability, T/C [10] of 100%, a viability, T/C [11] of 88.5% and a viability, T/C [12] of 94.9%. For the same compound, the viability, T/C [13] was 102%, the viability, T/C [14] was 94.1% and the viability, T/C [15] was 115%. The viability, T/C [16] was 83.5%, the viability, T/C [17] was 102% and the viability, T/C [18] was 88%. The viability, T/C [19] was 87%, the viability, T/C [20] was 102% and the viability, T/C [21] was 110%. It also gave a viability, T/C [22] of 104%, a viability, T/C [23] of 98.9% and a viability, T/C [24] of 92.9%. It also gave a viability, T/C [25] of 106%, a viability, T/C [26] of 101% and a viability, T/C [27] of 93.7%. For the same compound, the viability, T/C [28] was 89.8%, the viability, T/C [29] was 83.3% and the viability, T/C [30] was 84.1%. It also gave a viability, T/C [31] of 86.1%, a viability, T/C [32] of 89.3% and a viability, T/C [33] of 93.9%. For the same compound, the viability, T/C [34] was 66%, the viability, T/C [35] was 64.2% and the viability, T/C [36] was 28.7%.
